Broadly, the aqueous solubility is the dissolved amount per volume that the medium holds.

Bounds are passed on as bounds.

For series [1] the following is noted: cited from earlier work.
The subject of a further series is CRE, F-κB, or TGF-β. To be noted: cited from earlier work.
Series [2] concerns 2 mm biopsy punch wound in the center of the cartilaginous region. To be noted: XAV939 dissolved in DMSO; cited from earlier work.
Series [3] deals with 2 mm biopsy punch wound in the center of the cartilaginous region of each ear. Kind of series: Cartilage regrowth in mouse ears after 2 mm biopsy punch wound (Example 2). Type of series: in vivo, C57Bl/6J mice. To be noted: XAV939 in DMSO every day for 30 days. From the text: C57Bl/6J mice were purchased from The Jackson Laboratory (Bar Harbor, ME, USA) and maintained by PPY. C57Bl/6J mice (at least 3 months of age) were anesthetized with 3-5% isoflurane in O2 administered using Tabletop Laboratory Animal Anesthesia System (VetEquip Inc., Pleasanton, CA, USA). A 2 mm biopsy punch wound was made in the center of the cartilaginous region of each ear using a disposable biopsy punch (Acuderm Inc., Fort Lauderdale, FL, USA) as described previously (Rai, M. F. et al, 2021, Arthritis Rheum., 64:2300-2310). […] In order to quantify closure of the wounds, ears were excised following mouse sacrifice, fixed and placed on microscope slides for examination by way of the digital camera being affixed to a Micromaster Inverted microscope (Thermo Fisher Scientific, Waltham, MA, USA). […] Sections of the tissue were then stained with Trichome blues, imaged and analyzed by way of an Olympus DP71 microscope camera (Olympus America, Center Valley, PA, USA). […] For quantification of wound closure, ears were excised after the mice were sacrificed, placed on microscope slides (Denville Scientific, South Plainfield, NJ, USA) and imaged using Nikon Coolpix 8700 affixed to Micromaster Inverted microscope (Thermo Fisher Scientific, Waltham, MA, USA). […]

Another series deals with ear punch wound. To be noted: topical application, dissolved in DMSO; cited from earlier work.

On to `Oc1nc(-c2ccc(C(F)(F)F)cc2)nc2c1CSCC2` [XAV939, 3,5,7,8-Tetrahydro-2-[4-(trifluoromethyl)phenyl]-4H-thiopyrano[4,3-d]pyrimidin-4-one], for which the aqueous solubility in series [1] was below 1 µg/mL. Besides, in the series on CRE, F-κB, or TGF-β, the “effect on CRE, F-κB, or TGF-β” value is “does not affect”. Also, the “cartilage regeneration and healing following acute injury” value in series [2] was “increased cartilage regeneration and healing”. Also, in series [3], the “nature and character of the cartilage regrowth in the wounds, compared to DMSO control” value is given as “improved”. For the same compound, in the series with ear punch wound, the “fibrosis (scarring)” value is “reduced fibrosis” and the “rate of wound closure” value is “significantly increased”.

Values taken from US20260248722A1, “METHOD FOR CARTILAGE REGENERATION AND REGROWTH FOLLOWING INJURY” (ELUCIDERM INC., priority 2021, published 2026).
